Test results reported in patent US12201848B2, “Device and methods for use in removal of bio-film and treatment of halitosis” (priority 2016, dated 2025).
“Also recorded” adds a separate entry of the source.

Tests used:
[1] = system: Porphyromonas Gingivalis and Prevotella Intermedia; experiment: Lethal photosensitization of oral pathogens by methylene blue and red-filtered halogen light (colony count); type: cell-based; conditions: for Percent of Living Bacteria: mean of both species +/- SD
Description: Suitable stain dosages for providing lethal sensitization of oral pathogens are determined in vitro by the following procedure. An objective is to determine the minimum duration of light exposure and minimum agent dilution required to achieve at least a 50% reduction in bacteria counts. Experimental tests are performed on two common pathogens using a continuously working, high intensity, red filtered halogen lamp. Red light from the filtered halogen lamp is transmitted through a flexible light guide to radiate downwardly onto petri dishes containing samples of live bacteria of species Porphyromonas Gingivalis and Prevotella Intermedia using the protocols described below. Bacteria. Prevoltella Intermedia is isolated from patient sample material, identified in the laboratory using standard diagnostic test systems (Remel Inc., Lenexa, Kans., USA) and is maintained by twice-weekly subculture in thioglycollate medium (Becton Dickinson and Co, Sparks, Md., USA). P. gingivalis ATCC 33277 obtained from Remel Inc., is maintained by a twice-weekly subculture on CDC anaerobe blood agar (Becton Dickinson and Co, USA) and in thioglycollate medium (Becton Dickinson and Co, USA). Light Source. The source for light energy is a continuously working, high intensity halogen lamp having a built-in 250-Watt quartz halogen light source, model I-250 supplied by Medithon, New York, N.Y., USA. Such lights are customarily employed for ear, nose or throat procedures. The light is transmitted through a flexible light guide and filtered to maintain maximum energy output at wavelengths in the vicinity of about 650 nm using a broadband red filter (Edmund Optics Inc., Barrington, N.J., USA). The light output power density measured at 3 cm distance from the end of the light guide with filter is about 50 milliwatts/cm2. Photosensitizer. […] Lethal photosensitization of P. Intermedia. Petri dishes containing CDC anaerobe blood agar (Becton Dickinson and Co, USA) are inoculated with 0.5 ml of broth containing 5×10^5 CFU/ml and left closed at room temperature for about 10 minutes to let the broth penetrate the agar media. […] Only plates with concentrations of 0.01%, and 0.025% are used in the experiment with 20 min light exposure. Four plates are used for each experiment. […] The controls are covered to protect them from ambient light. […] A total of 108 subcultures is used for the experiment. Plates are incubated in anaerobic conditions in the jars using anaerobic pack kits (BBL GasPak Plus, Becton Dickinson and Co, Sparks, Md., USA) at 37° C. for 24 hours. Samples of the resulting culture growth are taken from each plate with sterile […] standard loop, dispensed in 1 ml of sterile NS and placed at the same media. Cultures are incubated at anaerobic conditions at 37° C. for another 24 hours, and after that the resulting colony count is performed on each plate. Lethal photosensitization of P. Gingivalis. Serial dilutions of the P. gingivalis culture are prepared from the initial culture preserved on plates using 1:L sterile standard loop (Becton Dickinson and Co, USA) and sterile NS. A Vitek calorimeter (Hach Company, Loveland, Colo., USA) is used to achieve a final concentration of about 5×10^3 CFU/ml from an initial 0.5 standard McFarland suspension of 10^8 CFU/ml. Plates containing CDC anaerobic blood agar (Becton Dickinson and Co, USA) are inoculated with the resulting suspension using sterile 10:L standard loops (Becton Dickinson and Co, USA). […] Plates are also incubated at 37° C. in the tightly closed jars supplied with anaerobic pack kits (BBL GasPak Plus, Becton Dickinson and Co, USA) for 24 hours, and the resulting colony count is performed on each plate.

P. gingivalis ATCC 33277 = experiment: Lethal photosensitization of P. Gingivalis (colony count); type: cell-based
Description: Suitable stain dosages for providing lethal sensitization of oral pathogens are determined in vitro by the following procedure. An objective is to determine the minimum duration of light exposure and minimum agent dilution required to achieve at least a 50% reduction in bacteria counts. Experimental tests are performed on two common pathogens using a continuously working, high intensity, red filtered halogen lamp. Red light from the filtered halogen lamp is transmitted through a flexible light guide to radiate downwardly onto petri dishes containing samples of live bacteria of species Porphyromonas Gingivalis and Prevotella Intermedia using the protocols described below. Bacteria. Prevoltella Intermedia is isolated from patient sample material, identified in the laboratory using standard diagnostic test systems (Remel Inc., Lenexa, Kans., USA) and is maintained by twice-weekly subculture in thioglycollate medium (Becton Dickinson and Co, Sparks, Md., USA). P. gingivalis ATCC 33277 obtained from Remel Inc., is maintained by a twice-weekly subculture on CDC anaerobe blood agar (Becton Dickinson and Co, USA) and in thioglycollate medium (Becton Dickinson and Co, USA). Light Source. […] The light output power density measured at 3 cm distance from the end of the light guide with filter is about 50 milliwatts/cm2. […]

CN(C)c1ccc2nc3ccc(=[N+](C)C)cc-3sc2c1 [methylene blue]
reduction of bacteria without exposure to light ([1]; 0.05% methylene blue alone): insignificant
difference between exposure for 10 and 20 minutes ([1]; either species, any concentration of methylene blue): No statistically significant difference
killing of bacteria without halogen light ([1]; methylene blue 0.001% or 0.025%, without halogen light): nor concentrations of methylene blue of 0.001% or 0.025%, without halogen light, appeared to be effective in killing bacteria
bactericidal effect with red-filtered light ([1]; methylene blue 0.01% or higher, exposure less than 10 minutes, accumulated energy 30 J/cm2, both species): bactericidal effect
Percent of Living Bacteria ([1]; methylene blue 0.01%, exposure to red light 0): 70 +/− 11%
Percent of Living Bacteria ([1]; methylene blue 0.01%, red light 1 min): 73 +/− 6%
Percent of Living Bacteria ([1]; methylene blue 0.01%, red light 5 min): 69 +/− 7%
Percent of Living Bacteria ([1]; methylene blue 0.01%, red light 10 min): 55 +/− 6%
Percent of Living Bacteria ([1]; methylene blue 0.01%, red light 20 min): 51 +/− 4%
Percent of Living Bacteria ([1]; methylene blue 0.025%, exposure to red light 0): 75 +/− 14%
reduction in bacteria counts ([1]; methylene blue 0.025%, light exposure 5 min): Significant reduction in bacteria counts
Percent of Living Bacteria ([1]; methylene blue 0.025%, red light 1 min): 67 +/− 4%
Percent of Living Bacteria ([1]; methylene blue 0.025%, red light 5 min): 47 +/− 6%
Percent of Living Bacteria ([1]; methylene blue 0.025%, red light 10 min): 48 +/− 8%
Percent of Living Bacteria ([1]; methylene blue 0.025%, red light 20 min): 49 +/− 5%
killing with duration of red light ([1]; methylene blue 0.025%, time intervals 5 and 10 min): statistically significant increased killing with duration
reduction in bacteria counts ([1]; methylene blue 0.05% and higher, light exposure 1 min): Significant reduction in bacteria counts
Percent of Living Bacteria ([1]; methylene blue 0.05%, exposure to red light 0): 68 +/− 12%
Percent of Living Bacteria ([1]; methylene blue 0.05%, red light 1 min): 53 +/− 10%
Percent of Living Bacteria ([1]; methylene blue 0.05%, red light 5 min): 32 +/− 7%
Percent of Living Bacteria ([1]; methylene blue 0.05%, red light 10 min): 32 +/− 9%
killing with duration of red light ([1]; methylene blue 0.05%, time intervals 1 min, 5 min and 10 min): statistically significant increased killing with duration
bacterial count reduction ([1]; methylene blue 0.075% and 0.1%, light exposure 1 min, both cultures): statistically significant bacterial count reduction
bactericidal effect without light exposure ([1]; methylene blue 0.075% and 0.1%, no red light): significant bactericidal effect; also recorded: significantly bactericidal
Percent of Living Bacteria ([1]; methylene blue 0.075%, exposure to red light 0): 51 +/− 10%
Percent of Living Bacteria ([1]; methylene blue 0.075%, red light 1 min): 45 +/− 5%
Percent of Living Bacteria ([1]; methylene blue 0.075%, red light 5 min): 26 +/− 5%
Percent of Living Bacteria ([1]; methylene blue 0.075%, red light 10 min): 25 +/− 5%
Percent of Living Bacteria ([1]; methylene blue 0.1%, exposure to red light 0): 35 +/− 9%
Percent of Living Bacteria ([1]; methylene blue 0.1%, red light 1 min): 39 +/− 12%
Percent of Living Bacteria ([1]; methylene blue 0.1%, red light 5 min): 28 +/− 9%
Percent of Living Bacteria ([1]; methylene blue 0.1%, red light 10 min): 24 +/− 4%
bacterial killing without light exposure (P. gingivalis ATCC 33277; methylene blue 0.01%, no light, P. gingivalis culture): statistically significant bacterial killing
bactericidal effect on P. gingivalis (P. gingivalis ATCC 33277; methylene blue 0.1%): bactericidal effect
